In US20120207861A1, “BIOCIDAL COMPOSITION AND METHOD FOR TREATING RECIRCULATING WATER SYSTEMS” (priority 2006, published 2012):

Experiments:
[1] = test system: biofilm of fungal isolates (Paecilomyces lilacinus, Trichoderma spp.) and bacterial isolates (Alcaligenes species, Sphingomonas species); assay: Remediation: 96-well plate mixed biofilm treated with biocides, resazurin readout; type: cell-based; conditions: for Efficacy level (Effective Concentration with 6 ppm of PHMB): with 6 ppm PHMB, biofilm treated 24 hours at 28° C., resazurin; for Result (effect of adjuvant on DBNPA efficacy against biofilm): adjuvant 50 ppm with DBNPA in presence of PHMB
Method: Fungal isolates of common fungi found in swimming pools such as Paecilomyces lilacinus and Trichoderma spp. and bacterial isolates also common to swimming pools such as, i.e. Alcaligenes species and Sphingomonas species were used to construct a biofilm, which was treated with biocides, using the following method: […] An aliquot of the spore suspension was added to each well of a 96-well plate, except column 12. The plates were incubated for 18 hours at 28° C. Also, a mixture of bacterial suspension was prepared at a concentration of 2.34×10^5/ml in 20% […] broth. An aliquot of bacterial suspension was added to each well of the 96-well plate, where fungal spores were placed. The plates were incubated for 24 hours at 28° C. […] An aliquot of the chemical solution was added to each well of column 1 and 2. The solution was mixed in each well of column 2 and an aliquot of solution was transferred from each well of column 2 to each well of column 3. The dilution was repeated to column 11 and the solution from each well of column 11 after dilution was discarded. The culture broth was removed from each well of the incubated plate. An aliquot of 0.8% sodium chloride solution was added to each well, except column 12. The sodium chloride solution was then removed from each well. The prepared chemical solutions were transferred to the corresponding wells of the biofilm plate. The plate was incubated for 24 hours at 28° C. The chemical solution was removed from the plate and an aliquot of resazurin solution was added to each well including column 12. The plate was kept on the lab bench for 24-48 hours. The plate was read at 540 nm and 620 nm. The difference in absorbance between the two wavelengths indicated the performance of the biocides.

[2] = test system: Mold (fungi Paecilomyces and Trichoderma); assay: Prevention in test pools: water mold counts
Method: (§1) The test pools were run in the preventative mode to evaluate the effect of the sanitizers on the build up of bacteria and fungi in the system. The pool pumps were operated for a minimum of 8 hours per day. Each pool was challenged twice per week with eight species of bacteria and four species of fungi typically found in swimming pool water. These microorganisms include species of the fungi Paecilomyces and Trichoderma, and species of the bacteria Alcaligenes, Chryseobacterium and Sphingomonas. Each inoculation represents a total addition of 0.8×106 microorganisms per test pool. Synthetic bather load is added to the system on a weekly basis, as a nutrient source for the microorganisms present in the system. The bather load consists of carbon, nitrogen and macro/micro nutrient sources such as urea, albumin, creatinine, lactic acid, uric acid, glucuronic acid, sodium chloride, sodium sulfate, ammonium chloride, sodium bicarbonate, potassium phosphate potassium sulfate. The total number of viable bacteria and fungi present in each test pool was determined weekly, by conducting agar plate counts. Water samples are removed from each test pool, and using this sample a dilution series (in 10-1 steps, down to a 10-5 of the original sample) is prepared. Subsequently, an aliquot of each dilution is spread onto dry Cystine Lactose Electrolyte Deficient agar plates (for enumeration of bacteria) and dry Sabaroud-Dextrose agar plates (for enumeration of fungi). […] There were no chemical doses administered on Saturday or Sunday.

[3] = test system: Bacteria (Alcaligenes, Chryseobacterium and Sphingomonas); assay: Prevention in test pools: water bacteria counts
Method: as §1

[4] = test system: viable bacteria in pool water and sand with established biofilm; assay: Remedial secondary screen: failed model pool, reduction of viable microorganisms in water and sand; type: cell-based; conditions: FIGS. 1 and 2
Method: The secondary screen methodology is based upon a laboratory scale model of a swimming pool. A volume (800 ml) of synthetic swimming pool water (Calcium chloride dihydrate and Sodium hydrogen carbonate solution) is pumped through a body of swimming pool filter sand, by means of a peristaltic pump. The water temperature of each system is maintained in the range of 80-90° F. The systems are allowed to fail resulting in turbid water and heavy bacterial and fungal growth. This is to simulate a swimming pool that has been improperly maintained and has a problem. The purpose of this test is to evaluate the ability of a single biocide or combination of biocides with adjuvants for controlling the organisms present in both the water and the filter sand. Turbidity is not a key measure because the suspended solids are too fine for filtration so they would need to be removed with a separate chemical treatment such as flocculation. To the water, chemicals may be added as required. […] Hydrogen peroxide is added at concentrations of 0-27.5 ppm at the start of the experimentation. The secondary model system is challenged on a daily basis with eight species of bacteria and four species of fungi typically found in swimming pool water. These microorganisms include species of the fungi Paecilomyces and Trichoderma, and species of the bacteria Alcaligenes, Chryseobacterium and Sphingomonas. Each inoculation represents a total addition of 0.8×10^6 microorganisms per model apparatus. A volume (5 ml) of synthetic bather load is added to the system on a daily basis, as a nutrient source for the microorganisms present in the system. The bather load consists of carbon, nitrogen and macro/micro nutrient sources such as urea, albumin, creatinine, lactic acid, uric acid, glucuronic acid, sodium chloride, sodium sulfate, ammonium chloride, sodium bicarbonate, potassium phosphate potassium sulfate. […] The biocidal treatments are added and reduction of viable microorganisms is measured. The biocidal treatments may be added a second time.

[5] = test system: fungi Paecilomyces and Trichoderma; assay: Prevention secondary screen: fungal plate counts; type: cell-based; conditions: Table 4
[6] = test system: eight species of bacteria and four species of fungi typically found in swimming pool water; assay: Prevention in test pools: overall mold and bacterial control
Method: The test pools were run in the preventative mode to evaluate the effect of the sanitizers on the build up of bacteria and fungi in the system. The pool pumps were operated for a minimum of 8 hours per day. Each pool was challenged twice per week with eight species of bacteria and four species of fungi typically found in swimming pool water. These microorganisms include species of the fungi Paecilomyces and Trichoderma, and species of the bacteria Alcaligenes, Chryseobacterium and Sphingomonas. Each inoculation represents a total addition of 0.8×106 microorganisms per test pool. Synthetic bather load is added to the system on a weekly basis, as a nutrient source for the microorganisms present in the system. The bather load consists of carbon, nitrogen and macro/micro nutrient sources such as urea, albumin, creatinine, lactic acid, uric acid, glucuronic acid, sodium chloride, sodium sulfate, ammonium chloride, sodium bicarbonate, potassium phosphate potassium sulfate. The total number of viable bacteria and fungi present in each test pool was determined weekly, by conducting agar plate counts. Water samples are removed from each test pool, and using this sample a dilution series (in 10-1 steps, down to a 10-5 of the original sample) is prepared. […]

[7] = test system: bacteria Alcaligenes, Chryseobacterium and Sphingomonas; assay: Prevention secondary screen: bacterial plate counts; type: cell-based; conditions: Table 4
[8] = test system: eight species of bacteria and four species of fungi typically found in swimming pool water; assay: Prevention secondary screen: laboratory scale model of a swimming pool, water clarity and hydrogen peroxide loss; type: cell-based; conditions: for Number of Days of Clarity below 1.0 NTU / Number of Days of Clarity below 1.0 NTU with no Peroxide in System: Table 4
[9] = Pool 2, 1.0 ppm/day DBNPA, Low Baquacil (10-20 ppm)
[10] = Pool 2, 1.0 ppm/day DBNPA, Recommended Baquacil (30-50 ppm)
[11] = Pool 6, 0.5 ppm/day DBNPA, Low Baquacil (10-20 ppm)
[12] = Pool 6, Tablet 0.3 ppm/day DBNPA, Recommended Baquacil (30-50 ppm), with hydrogen peroxide doses
[13] = Pool 7, 2.0 ppm/day DBNPA, Low Baquacil (10-20 ppm)
[14] = Pool 7, 2.0 ppm/day DBNPA, Recommended Baquacil (30-50 ppm)
[15] = DBNPA 1 ppm Daily Additions, in the absence of PHMB

Compound: CCCCCCCCCCCCN [Armeen 12D, Dodecyl amines]
- Efficacy level (Effective Concentration with 6 ppm of PHMB) [1]: >100 ppm

Compound: N#CC(Br)(Br)C(N)=O [DBNPA, Dibromonitrilopropionamide]
- Mold % 0 counts [2, 9]: 59.7%
- Mold % Counts >999 cfu/ml [2, 9]: 3.0%
- Mold Avg Counts [2, 9]: 4267 cfu/ml
- Mold % 0 counts [2, 10]: 69.0%
- Mold % Counts >999 cfu/ml [2, 10]: 0.0%
- Mold Avg Counts [2, 10]: 9.0 cfu/ml
- mold control compared to the other DBNPA pools ([2]; Pool 2 at low PHMB (1.0 ppm/day DBNPA)): had difficulty controlling mold
- Mold % 0 counts [2, 11]: 76.1%
- Mold % Counts >999 cfu/ml [2, 11]: 0.0%
- Mold Avg Counts [2, 11]: 19.0 cfu/ml
- Mold % 0 counts [2, 12]: 66.7%
- Mold % Counts >999 cfu/ml [2, 12]: 0.0%
- Mold Avg Counts [2, 12]: 8.0 cfu/ml
- Mold % 0 counts [2, 13]: 74.6%
- Mold % Counts >999 cfu/ml [2, 13]: 1.5%
- Mold Avg Counts [2, 13]: 620 cfu/ml
- Mold % 0 counts [2, 14]: 83.3%
- Mold % Counts >999 cfu/ml [2, 14]: 0.0%
- Mold Avg Counts [2, 14]: 4.0 cfu/ml
- Bacteria % 0 counts [3, 9]: 83.6%
- Bacteria % Counts >999 cfu/ml [3, 9]: 4.5%
- Bacteria Avg Counts [3, 9]: 561 cfu/ml
- Bacteria % 0 counts [3, 10]: 83.3%
- Bacteria % Counts >999 cfu/ml [3, 10]: 2.4%
- Bacteria Avg Counts [3, 10]: 74.0 cfu/ml
- Bacteria % 0 counts [3, 11]: 88%
- Bacteria % Counts >999 cfu/ml [3, 11]: 1.5%
- Bacteria Avg Counts [3, 11]: 150 cfu/ml
- Bacteria % 0 counts [3, 12]: 92.8%
- Bacteria % Counts >999 cfu/ml [3, 12]: 0.0%
- Bacteria Avg Counts [3, 12]: 5.0 cfu/ml
- Bacteria % 0 counts [3, 13]: 89.6%
- Bacteria % Counts >999 cfu/ml [3, 13]: 0.0%
- Bacteria Avg Counts [3, 13]: 22.0 cfu/ml
- Bacteria % 0 counts [3, 14]: 100%
- Bacteria % Counts >999 cfu/ml [3, 14]: 0.0%
- Bacteria Avg Counts [3, 14]: 0.0 cfu/ml
- reduction of viable bacterial and fungal populations (remedial performance) ([4]; versus oxidizers and surfactants): significantly better than the oxidizers and surfactants
- log reduction of viable bacteria in the water ([4]; remedial treatment of failed model system): improved performance over the non-oxidizing surfactants
- log reduction of viable bacteria in the sand ([4]; remedial treatment of failed model system, established biofilm): superior
- Fungal Counts at Clarity of 1.0 NTU or above ([5]; DBNPA 0.25 ppm Daily Additions): 3.0 × 10^2 CFU/ml
- Fungal Counts at Clarity of 1.0 NTU or above ([5]; DBNPA 0.5 ppm Daily Additions): 2.0 × 10^2 CFU/ml
- Fungal Counts at Clarity of 1.0 NTU or above [5, 15]: 1.2 × 10^3 CFU/ml
- average mold and bacterial counts when PHMB was increased to recommended ranges ([6]; all pools treated with DBNPA): significantly reduced
- improved performance over controls (average mold and bacterial counts) ([6]; all pools treated with DBNPA versus control pools): 2-4 logs
- Bacterial Counts at Clarity of 1.0 NTU or above ([7]; DBNPA 0.25 ppm Daily Additions): 3.0 × 10^7 CFU/ml
- Bacterial Counts at Clarity of 1.0 NTU or above ([7]; DBNPA 0.5 ppm Daily Additions): 1.3 × 10^8 CFU/ml
- Bacterial Counts at Clarity of 1.0 NTU or above [7, 15]: 9.9 × 10^7 CFU/ml
- Number of Days of Clarity below 1.0 NTU ([8]; DBNPA 0.25 ppm Daily Additions): 47 days
- Number of Days of Clarity below 1.0 NTU with no Peroxide in System ([8]; DBNPA 0.25 ppm Daily Additions): 0 days
- Number of Days of Clarity below 1.0 NTU ([8]; DBNPA 0.5 ppm Daily Additions): 54 days
- Number of Days of Clarity below 1.0 NTU with no Peroxide in System ([8]; DBNPA 0.5 ppm Daily Additions): 19 days
- Number of Days of Clarity below 1.0 NTU [8, 15]: <12 days
- time to failure of the system (turbid water) versus PHMB alone or PHMB and DBNPA combinations ([8]; experiment 2, DBNPA added daily at 1 ppm in the absence of PHMB): failure of the system and development of turbid water significantly sooner
- performance at preventing turbid water and controlling bacteria and fungi, compared to PHMB alone ([8]; experiment one, DBNPA weekly addition with PHMB): did not perform as well as the PHMB only treatment
- Effective concentration of DBNPA in presence of PHMB and Adjuvant ([1]; Adjuvant DSPO 50 ppm): 1.6-3.13 ppm
- Effective concentration of DBNPA in presence of PHMB and Adjuvant ([1]; Adjuvant DTEA 50 ppm): 3.13-6.25 ppm
- Effective concentration of DBNPA in presence of PHMB and Adjuvant ([1]; Adjuvant Envirosweet 50 ppm): 6.25-12.5 ppm
- Effective concentration of DBNPA in presence of PHMB and Adjuvant ([1]; Adjuvant Geogard 111A 50 ppm): 6.25-12.5 ppm
- Effective concentration of DBNPA in presence of PHMB and Adjuvant ([1]; Adjuvant None): 3.13-6.25 ppm
- Effective concentration of DBNPA in presence of PHMB and Adjuvant ([1]; Adjuvant SADA 50 ppm): 1.5-3.13 ppm
- Effective concentration of DBNPA in presence of PHMB and Adjuvant ([1]; Adjuvant Span 60 50 ppm): 3.13-6.25 ppm
- Effective concentration of DBNPA in presence of PHMB and Adjuvant ([1]; Adjuvant Sulfamic acid 50 ppm): 0.8-1.6 ppm
- Effective concentration of DBNPA in presence of PHMB and Adjuvant ([1]; Adjuvant Surfonic L24-22 50 ppm): 3.13-6.25 ppm
- Effective concentration of DBNPA in presence of PHMB and Adjuvant ([1]; Adjuvant Triton BG10 50 ppm): 3.13-6.25 ppm
- Effective concentration of DBNPA in presence of PHMB and Adjuvant ([1]; Adjuvant Worm 50 ppm): 1.6-3.13 ppm

Compound: O=C1c2ccccc2C(=O)c2ccccc21 [Envirosweet, 9,10 anthraquinone]
- Result (effect of adjuvant on DBNPA efficacy against biofilm) [1]: Negative impact

Compound: CC(=O)C1C(=O)C=C(C)OC1=O (stereo not drawn) [Geogard 111A, Dehydroxyacetic acid (dehydroacetic acid)]
- Result (effect of adjuvant on DBNPA efficacy against biofilm) [1]: Negative impact

Compound: CCCCCCCCCCCCCC(=O)O [Myristian, Mystic acid]
- Efficacy level (Effective Concentration with 6 ppm of PHMB) [1]: >100 ppm

Compound: NS(=O)(=O)O [Sulfamic acid]
- Result (effect of adjuvant on DBNPA efficacy against biofilm) [1]: most significant effect on lowering the concentration of DBNPA

Compound: Fatty alcohol polyglycol ether [Genapol C 050]
- Efficacy level (Effective Concentration with 6 ppm of PHMB) [1]: >100 ppm

Compound: N-Alkyl (C12-16)-N,N-dimethyl-N-benzylammonium chloride [Uniquat QAC-50]
- Efficacy level (Effective Concentration with 6 ppm of PHMB) [1]: >100 ppm

Compound: POE (2) stearyl ether [Brij ® 72]
- Efficacy level (Effective Concentration with 6 ppm of PHMB) [1]: >100 ppm

Compound: Sorbitan monooleate [Alkamuls BR]
- Efficacy level (Effective Concentration with 6 ppm of PHMB) [1]: >100 ppm
